For one assay, the system named is pERK in A375 cells. Description: In Cell Western (ICW) assay, pERK in A375 cells. The assay is classed as cell-based. The settings on record: Homo sapiens, A-375, 3 h treatment. The method, boiled down:
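After a 3 h compound treatment at 37 °C, fixed RKO or A375 cells were probed for phospho-ERK1/2 (T202/Y204), phospho-S6RP or phospho-AKT T308 and detected with a Eu-tagged anti-rabbit antibody (ex 340/em 615 nm), with Hoechst signal as the cell-number correction. Inhibition was referenced to DMSO, and IC50 values came from sigmoidal dose-response curves.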

The target in the next assay is T1, mTOR kinase (Homo sapiens, UniProt P42345).
T1 construct: purchased Millipore, US
Description: mTOR kinase TR-FRET assay. The assay is classed as biochemical. The method, boiled down: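 TR-FRET with ULight-p70 S6K (Thr 389) peptide (50 nM) and 20 μM ATP in 50 mM HEPES pH 7.5, 1 mM EGTA, 3 mM MnCl2; compound pre-incubated with enzyme before substrate addition, reaction at rt, EDTA-stopped. Eu anti-phospho antibody read 665/615 nm; IC50 from sigmoidal dose-response fit.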
For orientation: Time-resolved FRET reads energy transfer from a long-lived donor to a nearby acceptor.

A further assay has as its target T2, B-RAFV600E (Homo sapiens, UniProt P15056, V600E).
T2 construct: purchased Millipore, USA 14-557
Description: B-RAFV600E radiometric assay. The following applies: read-out: Kinase assay B-Raf. Type of assay: biochemical. In short, it runs like this: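 B-RAFV600E was preincubated 45 min at rt with compound in 1% DMSO. MEK-K97M (0.5 μg), 5 μM final cold ATP and [γ-32P]ATP were then added for 2 h at rt. Phosphorylated MEK was captured on P81 paper and scintillation-counted; IC50 came from a sigmoidal dose-response fit.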

For the next assay, the system named is RKO cells. Description: XTT assay for cell viability, RKO cells. The settings on record: Homo sapiens, 72 h. Type of assay: cell-based. Here is the method: Cell lines (A375 ATCC No. CRL-1619, A2058 ATCC No. CRL-11147 and RKO ATCC No. CRL-2577, American Type Culture Collection (ATCC), Manassas Va.) once attaining ˜80% confluency were trypsinized, centrifuged and resuspended in fresh media. Cells (1000-2000/per well) were seeded in 96-well plate and incubated over-night at 37° C. in a 5% CO2 incubator. Compound dilutions were prepared in 100% DMSO followed by dilutions in the respective media. The cells were treated with NCEs for 72 h at 37° C. in 5% CO2 incubator. After 72 h, freshly prepared XTT (1 mg/ml)/PMS (25 μM) solution was added, incubated for 2 to 3 h at 37° C. and the absorbance was measured at 450 nm using an ELISA plate reader. Keeping DMSO control as 100%, the effect of the compound to inhibit the cell proliferation was calculated and the GI50 values were determined using sigmoidal dose response curve fit in GraphPad Prism® v5 software.
Background: Formazan colour is commonly taken as a measure of viable cells.

The next assay concerns pS6RP in RKO cells. The assay is described as follows: In Cell Western (ICW) assay, pS6RP in RKO cells. The assay is classed as cell-based. The settings on record: Homo sapiens, 3 h treatment. As for the experimental part:
(§1) Cell lines A375, A2058 and RKO obtained from the ATCC as provided above, were grown, and after attaining ˜80% confluency were trypsinized, centrifuged and resuspended in fresh media. The cells were seeded at the specified density (20,000 to 50,000) in a 96-well format black-well clear bottom plate (Corning) and incubated overnight at 37° C. in a 5% CO2 incubator. The next day, compound dilutions of test compounds were prepared in 100% DMSO followed by dilutions in respective media. Treatment of test compounds was performed for 3 h at 37° C. in 5% CO2 incubator. Following 3 h drug treatment, the conditional media was discarded and the cells were washed once with cPBS (PBS containing 0.1% magnesium chloride hexahydrate and 0.1% anhydrous calcium chloride) and fixed with 4% paraformaldehyde in cPBS for 1 h at rt. After fixing, the cells were given three washes using cPBST (cPBS containing 0.1% Triton™ X-100 reagent) and then blocked using blocking solution (5% skimmed milk powder or 5% BSA prepared in cPBST) for 2 h at rt with shaking at 300 rpm. The cells were again washed thrice with cPBST and incubated with primary antibody phospho-p44/42 MAPK(Erk1/2)(Thr202/204) antibody (Cell Signaling, Catalog # 9101L), phospho S6 ribosomal protein (Cell Signaling, Catalog #4858L), phospho AKT (Thr 308) (Cell Signaling, Catalog #9275) or phospho AKT (Ser 473) (Cell Signaling, Catalog #4060L) in specified dilutions (1:500-1:2500), prepared in respective blocking solutions, in a racker overnight at 4° C. The next day, the cells were washed with 1× Delfia® wash buffer (4×1 wash) and incubated with secondary antibody (Delfia®-Eu-N1 labeled anti-rabbit antibody; PerkinElmer, Catalog #AD0105; dilutions: 1:2000 to 1:6000 in Delfia® assay buffer (PerkinElmer, Catalog #1244-111)) for 2 h at rt in the dark at 300 rpm. The cells were then given four washes with 1× Delfia® wash buffer and incubated with Wallac Delfia® Enhancement solution (100 μL; PerkinElmer, Catalog #1244-105) for 20 min at rt in the dark at 300 rpm. The fluorescence emission was then read at 615 nm with an excitation wavelength of 340 nm using a Victor V5 Fluorometer (Perkin Elmer, US). The cells were then washed once with 1×cPBS and incubated with 100 μL of 0.5 mg/mL of Hoechst 33258 dye prepared in cPBS and read at 460 nm with 355 nm excitation, thereby evaluating the correction factor.
(§2) The % inhibition for the test compounds of formula (I) (new chemical entities (NCEs)) was calculated keeping DMSO control as 0% and the IC50 values were determined using sigmoidal dose response curve fit in GraphPad Prism® v5 software.

Another assay concerns A375 cells. Description: XTT assay for cell viability, A375 cells. The settings on record: Homo sapiens, A-375, 72 h. The assay is classed as cell-based. In short, it runs like this:
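GI50 derived by sigmoidal dose-response fitting of proliferation normalised to DMSO control (100%). Readout: A450 after 2-3 h with XTT (1 mg/ml)/PMS (25 μM), following 72 h compound treatment at 37° C., 5% CO2 of cells plated at 1000-2000 per well the previous day.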

Another assay has as its system pERK in RKO cells. Description: In Cell Western (ICW) assay, pERK in RKO cells. The settings on record: Homo sapiens, 3 h treatment. Type of assay: cell-based. Here is the method:
as §1, §2

For another assay, the target named is T3, PI3Kα (Homo sapiens, UniProt P42336).
T3 construct: made in house; host or cells: SF9 cells
Description: PI3 Kinase alpha TR-FRET assay. Type of assay: biochemical. In short, it runs like this:
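Purified Sf9-expressed p110/p85α (5 ng) was pre-incubated with compound and PIP2 at rt, then ATP was added (PIP2 and ATP both 40 μM) for a 30 min reaction. PIP3 was detected by TR-FRET displacement of biotin-PIP3, and IC50 was taken from dose-response curves of the 665/615 nm emission ratio.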

Molecules are shown by their SMILES.

T1 sequence (P42345 1362-2549 limits assumed): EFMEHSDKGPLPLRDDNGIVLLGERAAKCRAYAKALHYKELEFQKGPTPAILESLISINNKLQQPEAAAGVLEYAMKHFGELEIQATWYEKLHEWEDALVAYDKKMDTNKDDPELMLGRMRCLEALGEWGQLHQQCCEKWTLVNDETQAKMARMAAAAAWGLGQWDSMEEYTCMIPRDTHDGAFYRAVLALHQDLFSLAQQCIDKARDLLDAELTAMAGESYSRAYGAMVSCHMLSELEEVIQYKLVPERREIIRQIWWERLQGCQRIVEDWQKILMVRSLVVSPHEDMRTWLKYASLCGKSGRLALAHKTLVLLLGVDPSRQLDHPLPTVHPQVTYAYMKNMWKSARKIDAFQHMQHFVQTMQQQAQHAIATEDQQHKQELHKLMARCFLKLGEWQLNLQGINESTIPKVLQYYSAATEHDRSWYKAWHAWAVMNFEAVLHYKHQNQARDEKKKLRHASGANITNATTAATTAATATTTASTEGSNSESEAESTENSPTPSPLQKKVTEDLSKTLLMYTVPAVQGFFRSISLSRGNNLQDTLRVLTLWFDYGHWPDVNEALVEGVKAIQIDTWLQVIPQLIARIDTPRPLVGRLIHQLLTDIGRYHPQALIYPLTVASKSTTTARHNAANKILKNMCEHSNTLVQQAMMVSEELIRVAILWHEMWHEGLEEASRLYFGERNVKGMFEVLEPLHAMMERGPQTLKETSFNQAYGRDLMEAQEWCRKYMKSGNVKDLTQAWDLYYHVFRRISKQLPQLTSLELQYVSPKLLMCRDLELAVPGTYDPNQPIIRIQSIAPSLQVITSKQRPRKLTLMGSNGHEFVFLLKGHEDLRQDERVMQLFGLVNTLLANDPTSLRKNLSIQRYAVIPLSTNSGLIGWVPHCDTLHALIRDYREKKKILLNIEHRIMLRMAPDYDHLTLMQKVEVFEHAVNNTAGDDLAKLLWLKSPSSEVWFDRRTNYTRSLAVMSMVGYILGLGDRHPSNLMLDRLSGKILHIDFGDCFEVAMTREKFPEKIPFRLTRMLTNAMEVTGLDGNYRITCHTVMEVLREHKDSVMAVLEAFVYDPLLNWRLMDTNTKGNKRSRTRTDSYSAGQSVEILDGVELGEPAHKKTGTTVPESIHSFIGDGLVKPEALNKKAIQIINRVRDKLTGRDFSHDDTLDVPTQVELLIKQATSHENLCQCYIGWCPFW
T2 sequence (P15056 416-766 V600E limits assumed): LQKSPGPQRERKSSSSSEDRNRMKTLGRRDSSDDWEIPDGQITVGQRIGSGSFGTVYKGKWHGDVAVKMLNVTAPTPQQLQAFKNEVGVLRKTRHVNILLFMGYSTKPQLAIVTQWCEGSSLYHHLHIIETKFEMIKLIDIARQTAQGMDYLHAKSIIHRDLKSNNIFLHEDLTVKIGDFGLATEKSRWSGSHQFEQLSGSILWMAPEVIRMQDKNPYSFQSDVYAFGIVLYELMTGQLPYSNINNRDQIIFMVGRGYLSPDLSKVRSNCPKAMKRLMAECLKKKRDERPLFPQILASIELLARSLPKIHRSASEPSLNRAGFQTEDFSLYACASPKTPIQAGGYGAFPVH
T3 sequence (P42336 whole entry, species assumed): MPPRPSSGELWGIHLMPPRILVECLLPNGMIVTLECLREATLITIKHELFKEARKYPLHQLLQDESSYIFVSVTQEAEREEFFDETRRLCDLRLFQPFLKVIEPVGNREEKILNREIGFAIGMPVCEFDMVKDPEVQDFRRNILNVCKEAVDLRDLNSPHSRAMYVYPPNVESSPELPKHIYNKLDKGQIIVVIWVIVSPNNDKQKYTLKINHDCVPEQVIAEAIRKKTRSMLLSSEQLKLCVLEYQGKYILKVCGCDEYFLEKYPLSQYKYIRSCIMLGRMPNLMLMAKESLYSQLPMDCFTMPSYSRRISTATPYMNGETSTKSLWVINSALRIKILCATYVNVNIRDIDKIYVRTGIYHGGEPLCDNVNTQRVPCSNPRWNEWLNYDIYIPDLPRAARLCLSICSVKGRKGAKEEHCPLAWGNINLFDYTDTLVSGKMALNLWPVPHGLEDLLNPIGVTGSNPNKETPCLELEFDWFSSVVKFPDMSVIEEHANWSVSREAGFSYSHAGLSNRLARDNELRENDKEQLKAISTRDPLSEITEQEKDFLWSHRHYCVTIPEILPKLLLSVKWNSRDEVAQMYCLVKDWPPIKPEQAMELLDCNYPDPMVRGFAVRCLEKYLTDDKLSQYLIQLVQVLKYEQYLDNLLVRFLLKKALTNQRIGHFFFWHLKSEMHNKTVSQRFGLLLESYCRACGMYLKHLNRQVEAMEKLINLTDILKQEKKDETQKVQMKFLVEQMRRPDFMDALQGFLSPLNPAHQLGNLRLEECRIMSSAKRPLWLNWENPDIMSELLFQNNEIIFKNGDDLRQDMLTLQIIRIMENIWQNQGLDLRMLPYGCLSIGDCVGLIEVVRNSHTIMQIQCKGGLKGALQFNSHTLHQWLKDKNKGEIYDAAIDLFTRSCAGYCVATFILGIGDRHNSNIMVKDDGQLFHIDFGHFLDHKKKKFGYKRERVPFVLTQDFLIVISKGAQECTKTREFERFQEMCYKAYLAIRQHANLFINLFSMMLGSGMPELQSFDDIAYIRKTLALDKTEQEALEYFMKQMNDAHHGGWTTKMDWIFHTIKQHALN
T3 sequence (P27986 whole entry partner, species assumed): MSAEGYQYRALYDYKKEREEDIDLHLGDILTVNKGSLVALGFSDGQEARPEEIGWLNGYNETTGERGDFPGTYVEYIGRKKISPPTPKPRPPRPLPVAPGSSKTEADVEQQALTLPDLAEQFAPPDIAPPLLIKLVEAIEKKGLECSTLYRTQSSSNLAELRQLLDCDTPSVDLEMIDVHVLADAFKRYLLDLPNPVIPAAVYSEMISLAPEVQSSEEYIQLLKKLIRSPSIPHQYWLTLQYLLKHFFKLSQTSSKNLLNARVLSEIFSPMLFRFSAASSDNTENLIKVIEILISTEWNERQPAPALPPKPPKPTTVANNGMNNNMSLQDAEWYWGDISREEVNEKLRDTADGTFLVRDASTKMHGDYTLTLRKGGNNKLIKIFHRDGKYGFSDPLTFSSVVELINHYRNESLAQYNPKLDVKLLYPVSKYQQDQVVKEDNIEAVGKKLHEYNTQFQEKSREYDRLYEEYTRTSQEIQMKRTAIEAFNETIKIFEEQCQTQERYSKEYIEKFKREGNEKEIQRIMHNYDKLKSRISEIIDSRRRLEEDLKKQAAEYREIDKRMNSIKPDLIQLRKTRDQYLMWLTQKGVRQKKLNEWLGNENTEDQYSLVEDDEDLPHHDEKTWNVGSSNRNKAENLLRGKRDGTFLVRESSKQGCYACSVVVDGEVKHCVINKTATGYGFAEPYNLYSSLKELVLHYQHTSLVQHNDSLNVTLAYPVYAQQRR

As for `COc1cc(-c2cccc(NS(=O)(=O)CCCF)c2F)cc2c(N3CCOCC3)nc(-c3ccc(N)nc3)nc12` [Example 30, N-(3-(2-(6-aminopyridin-3-yl)-8-methoxy-4-morpholinoquinazolin-6-yl)-2-fluorophenyl)-3-fluoropropane-1-sulfonamide], the IC50 in the assay with pERK in A375 cells is 1 to 100 nM; at mTOR kinase it was 100 to 1000 nM; at B-RAFV600E it was 1 to 100 nM; with RKO cells, 100 to 1000 nM; in the assay on pS6RP in RKO cells it was 100 to 1000 nM; with A375 cells, 100 to 1000 nM. This compound showed an IC50 in the assay with pERK in RKO cells of 1 to 100 nM.

With `COc1cc(-c2cccc(NS(=O)(=O)CCCF)c2F)cc2c(N3CCOCC3)nc(-c3cnc4[nH]ccc4c3)nc12` [Example 40, 3-fluoro-N-(2-fluoro-3-(8-methoxy-4-morpholino-2-(1H-pyrrolo[2,3-b]pyridin-5-yl)quinazolin-6-yl)phenyl)propane-1-sulfonamide], the IC50 in the assay on pERK in A375 cells lay in the range of 1 to 100 nM; at mTOR kinase, 1 to 100 nM; on B-RAFV600E, 1 to 100 nM; in the assay with pS6RP in RKO cells it was 100 to 1000 nM; with A375 cells, 100 to 1000 nM.

As for `Nc1cc(C(F)(F)F)c(-c2nc(N3CCOCC3)c3nc(-c4cccc(NS(=O)(=O)c5cc(F)ccc5F)c4F)ccc3n2)cn1` [Example 104, N-(3-(2-(6-amino-4-(trifluoromethyl)pyridin-3-yl)-4-morpholinopyrido[3,2-d]pyrimidin-6-yl)-2-fluorophenyl)-2,5-difluorobenzenesulfonamide], the IC50 lay within 1 to 100 nM with pERK in A375 cells; 1 to 100 nM at PI3Kα; 1 to 100 nM at B-RAFV600E; 1 to 100 nM in the assay on A375 cells; 100 to 1000 nM in the assay with pERK in RKO cells.

For the compound `CCOc1cc(-c2cccc(NS(=O)(=O)CCCF)c2F)cc2c(N3CCOC[C@H]3C)nc(-c3cnc(N)nc3)nc12` [Example 137, (R)-N-(3-(2-(2-aminopyrimidin-5-yl)-8-ethoxy-4-(3-methylmorpholino)quinazolin-6-yl)-2-fluorophenyl)-3-fluoropropane-1-sulfonamide], the IC50 with pERK in A375 cells fell in the range of 1 to 100 nM; on mTOR kinase, 100 to 1000 nM; on B-RAFV600E, 1 to 100 nM; in the assay on RKO cells, 1 to 100 nM; in the assay with A375 cells it was 100 to 1000 nM; with pERK in RKO cells, 1 to 100 nM.

Consider `CNC(=O)Nc1ccc(-c2nc(N3CCOCC3)c3cc(-c4cccc(NS(=O)(=O)c5c(F)cccc5F)c4F)cc(OC)c3n2)cc1` [Example 1, 2,6-Difluoro-N-(2-fluoro-3-(8-methoxy-2-(4-(3-methylureido)phenyl)-4-morpholinoquinazolin-6-yl)phenyl)benzenesulfonamide], for which the IC50 with pERK in A375 cells fell in the range of 100 to 1000 nM; against mTOR kinase, 1 to 100 nM; at B-RAFV600E, 1 to 100 nM; in the assay with RKO cells, 1000 to 10000 nM; in the assay on A375 cells, 100 to 1000 nM; in the assay on pERK in RKO cells, 100 to 1000 nM.

As for `COCCOc1cc(-c2cccc(NS(=O)(=O)CCCF)c2F)cc2c(N3CCOCC3)nc(-c3cnc(N)nc3)nc12` [Example 68, N-(3-(2-(2-aminopyrimidin-5-yl)-8-(2-methoxyethoxy)-4-morpholinoquinazolin-6-yl)-2-fluorophenyl)-3-fluoropropane-1-sulfonamide], the IC50 in the assay with pERK in A375 cells lay within 1 to 100 nM; at mTOR kinase, 1 to 100 nM; at B-RAFV600E, 1 to 100 nM; in the assay on RKO cells it was 100 to 1000 nM; with pS6RP in RKO cells it was 100 to 1000 nM.

In the case of `CC(C)Oc1cc(-c2cccc(NS(=O)(=O)CCCF)c2F)cc2c(N3CCOC[C@H]3C)nc(-c3cnc(N)nc3)nc12` [Example 64, (R)-N-(3-(2-(2-aminopyrimidin-5-yl)-8-isopropoxy-4-(3-methylmorpholino)quinazolin-6-yl)-2-fluorophenyl)-3-fluoropropane-1-sulfonamide], the IC50 with pERK in A375 cells lay within 1 to 100 nM; against mTOR kinase, 100 to 1000 nM; on B-RAFV600E, 1 to 100 nM; in the assay with pS6RP in RKO cells it was 100 to 1000 nM; in the assay on A375 cells it was 1 to 100 nM.

As to `COCCOc1cc(-c2cccc(NS(=O)(=O)CCCF)c2F)cc2c(N3CCOCC3)nc(-c3ccc(N)nc3)nc12` [Example 67, N-(3-(2-(6-aminopyridin-3-yl)-8-(2-methoxyethoxy)-4-morpholinoquinazolin-6-yl)-2-fluorophenyl)-3-fluoropropane-1-sulfonamide], the IC50 in the assay on pERK in A375 cells is 100 to 1000 nM; against mTOR kinase, 1 to 100 nM; on B-RAFV600E it was 1 to 100 nM; in the assay on RKO cells, 1 to 100 nM; in the assay with pS6RP in RKO cells, 100 to 1000 nM.

On to `C[C@@H]1COCCN1c1nc(-c2cnc(N)cc2F)nc2ccc(-c3cccc(NS(=O)(=O)CCCF)c3F)nc12` [Example 140, (R)-N-(3-(2-(6-amino-4-fluoropyridin-3-yl)-4-(3-methylmorpholino)pyrido[3,2-d]pyrimidin-6-yl)-2-fluorophenyl)-3-fluoropropane-1-sulfonamide], for which the IC50 with pERK in A375 cells is 100 to 1000 nM; at mTOR kinase, 100 to 1000 nM; on B-RAFV600E, 1 to 100 nM; in the assay on RKO cells, 100 to 1000 nM; in the assay with A375 cells, 100 to 1000 nM; in the assay with pERK in RKO cells, 1 to 100 nM.

In the case of `CNc1ncc(-c2nc(N3CCOC[C@H]3C)c3cc(-c4cccc(NS(=O)(=O)CCCF)c4F)cc(OC)c3n2)cn1` [Example 136, (R)-3-fluoro-N-(2-fluoro-3-(8-methoxy-2-(2-(methylamino)pyrimidin-5-yl)-4-(3-methylmorpholino)quinazolin-6-yl)phenyl)propane-1-sulfonamide], the IC50 on mTOR kinase fell in the range of 100 to 1000 nM; on B-RAFV600E, 1 to 100 nM; with RKO cells it was 100 to 1000 nM; in the assay with pERK in RKO cells, 1 to 100 nM.

Take `CCOc1cc(-c2cccc(NS(=O)(=O)CCCF)c2F)cc2c(N3CCOC[C@@H]3C)nc(-c3ccc(N)nc3)nc12` [Example 65, (S)-N-(3-(2-(6-aminopyridin-3-yl)-8-ethoxy-4-(3-methylmorpholino)quinazolin-6-yl)-2-fluorophenyl)-3-fluoropropane-1-sulfonamide]: the IC50 with pERK in A375 cells lay within 1 to 100 nM; against mTOR kinase, 1 to 100 nM; on B-RAFV600E, 1 to 100 nM; in the assay with RKO cells it was 100 to 1000 nM; in the assay with pS6RP in RKO cells, 100 to 1000 nM; in the assay on A375 cells, 100 to 1000 nM.
